In US20040127518A1, “Modulation of anxiety through blockade of anandamide hydrolysis” (priority 2002, published 2004):
Where two headings read alike, the source gives them in different places.

Legend:
[1] = target: T1, rat brain monoglyceride lipase (MGL) (Rattus norvegicus, UniProt Q8R431); experiment: Cytosol MGL activity, 2-mono-oleoyl-glycerol as substrate
T1 sequence (Q8R431 1-303): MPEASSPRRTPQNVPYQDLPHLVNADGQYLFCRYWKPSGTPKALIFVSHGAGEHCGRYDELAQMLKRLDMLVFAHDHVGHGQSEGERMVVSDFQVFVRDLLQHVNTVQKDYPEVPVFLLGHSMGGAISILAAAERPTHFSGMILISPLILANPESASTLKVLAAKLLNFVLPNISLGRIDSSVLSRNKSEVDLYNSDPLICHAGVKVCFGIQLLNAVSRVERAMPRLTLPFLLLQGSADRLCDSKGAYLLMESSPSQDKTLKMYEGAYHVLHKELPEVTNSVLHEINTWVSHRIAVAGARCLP
Excerpt: (§1) We prepared cell fractions from rat brain homogenates, and assayed membrane FAAH activity and cytosol MGL activity using anandamide [ethanolamine-3H] (American Radiolabeled Chemicals, ARC (St. Louis Mo.), 60 Ci/mmol) and 2-mono-oleoyl-glycerol-[glycerol-1,2,3^−3H] (ARC, St. Louis Mo., 20 Ci/mmol), respectively, as substrates (Dinh, T. Proc. Natl. Acad. Sci. U.S.A. (2002)). We conducted [^3H]anandamide transport assays in human astrocytoma cells (Piomelli, D. et al., Proc. Natl. Acad. Sci. U.S.A., 96, 5802-5807 (1999)); CB1 and CB2 binding assays in rat cerebellar membranes and CB2-overexpressing Chinese hamster ovary cells (Receptor Biology-Perkin Elmer, Wellesley, Mass.), respectively, using [^3H]WIN-55212-2 (NEN-Dupont, Boston, Mass., 40-60 Ci/mmol) as a ligand (Devane, W. A. et al. Science, 258, 1946-1949 (1992)); cholinesterase assays with a commercial kit (Sigma, St. Louis, Mo.), using purified enzymes (electric eel acetylcholinesterase type V-S and horse serum cholinesterase; both from Sigma, St. Louis, Mo.) and following manufacturer's instructions.

[2] = target: T2, electric eel acetylcholinesterase (Electrophorus electricus, UniProt O42275); experiment: biochemical
T2 sequence (O42275 whole entry): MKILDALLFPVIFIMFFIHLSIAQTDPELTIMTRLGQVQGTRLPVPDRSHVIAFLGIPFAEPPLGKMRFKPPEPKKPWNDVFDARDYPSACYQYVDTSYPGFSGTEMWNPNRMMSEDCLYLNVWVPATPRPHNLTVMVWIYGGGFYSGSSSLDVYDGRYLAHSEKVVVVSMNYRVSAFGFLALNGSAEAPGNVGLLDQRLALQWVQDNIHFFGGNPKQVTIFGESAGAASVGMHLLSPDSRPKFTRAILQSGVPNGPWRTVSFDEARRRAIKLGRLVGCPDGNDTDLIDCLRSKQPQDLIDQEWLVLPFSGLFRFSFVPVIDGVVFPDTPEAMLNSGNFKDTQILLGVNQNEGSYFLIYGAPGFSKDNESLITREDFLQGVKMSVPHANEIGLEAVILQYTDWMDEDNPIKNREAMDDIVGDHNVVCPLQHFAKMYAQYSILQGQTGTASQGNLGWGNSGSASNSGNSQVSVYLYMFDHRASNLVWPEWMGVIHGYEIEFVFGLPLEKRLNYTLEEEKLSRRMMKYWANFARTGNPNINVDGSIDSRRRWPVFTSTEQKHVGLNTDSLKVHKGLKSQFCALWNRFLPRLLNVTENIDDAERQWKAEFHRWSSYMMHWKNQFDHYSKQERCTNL

CB2 receptor = CB2 receptor (Homo sapiens, UniProt P34972); experiment: CB2 binding assay in CB2-overexpressing Chinese hamster ovary cells, [3H]WIN-55212-2
CB2 receptor, sequence (P34972 whole entry): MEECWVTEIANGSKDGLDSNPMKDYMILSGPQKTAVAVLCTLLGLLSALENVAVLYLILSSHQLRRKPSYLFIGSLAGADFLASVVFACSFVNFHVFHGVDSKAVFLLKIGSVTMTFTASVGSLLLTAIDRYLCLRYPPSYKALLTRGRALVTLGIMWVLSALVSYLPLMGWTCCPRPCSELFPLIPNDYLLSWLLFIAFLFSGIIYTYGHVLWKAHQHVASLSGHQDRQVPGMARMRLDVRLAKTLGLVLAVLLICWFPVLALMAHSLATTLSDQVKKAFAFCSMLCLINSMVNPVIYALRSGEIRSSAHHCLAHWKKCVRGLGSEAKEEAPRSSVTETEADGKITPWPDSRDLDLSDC
Excerpt: as §1

FAAH = target: T3, FAAH (Rattus norvegicus, UniProt P97612); experiment: biochemical; format: biochemical; design: from tissue; host or cells: rat brain (membrane fraction of homogenate; Wistar rats)
T3 sequence (P97612 1-579): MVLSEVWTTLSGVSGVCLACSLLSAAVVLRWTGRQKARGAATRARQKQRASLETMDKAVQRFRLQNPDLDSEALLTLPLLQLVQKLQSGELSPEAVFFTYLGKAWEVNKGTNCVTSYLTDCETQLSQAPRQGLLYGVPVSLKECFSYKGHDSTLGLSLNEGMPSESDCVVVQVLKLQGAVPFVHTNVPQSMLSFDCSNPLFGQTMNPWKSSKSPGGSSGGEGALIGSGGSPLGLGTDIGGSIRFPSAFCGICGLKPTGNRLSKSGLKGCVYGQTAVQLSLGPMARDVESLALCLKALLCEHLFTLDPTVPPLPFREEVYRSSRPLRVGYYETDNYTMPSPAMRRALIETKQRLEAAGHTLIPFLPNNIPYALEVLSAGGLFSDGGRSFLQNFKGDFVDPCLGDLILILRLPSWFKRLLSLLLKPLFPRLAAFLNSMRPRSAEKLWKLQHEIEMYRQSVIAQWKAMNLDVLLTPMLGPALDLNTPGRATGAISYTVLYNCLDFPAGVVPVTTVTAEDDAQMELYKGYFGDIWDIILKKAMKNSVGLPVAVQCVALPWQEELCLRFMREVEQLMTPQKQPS

Mouse formalin test = format: in vivo; settings: dose not stated, data not shown
Protocol: We dissolved FAAH inhibitors in polyethyleneglycol/water (1/1) and rimonabant in saline. Formalin and hot-plate assays were carried out in the mouse, as described (Beltramo, M. et al., FEBS Lett., 403, 263-267 (1997)).
The compounds exerted, however, moderate antinociceptive effects in two models of acute pain.

[3] = target: T2, electric eel acetylcholinesterase
[4] = Body temperature (rectal probe); format: in vivo; settings: UCM532 10 mg kg-1 i.p.; UCM597 0.3 mg kg-1 i.p.
Excerpt: We dissolved all compounds in saline/Tween 80/polyethylenglycol (90/5/5) and administered them by i.p. injection immediately before tests. We measured body temperature with a rectal probe (Type T, Copper-Costantan Thermocouple-Physitemp Instruments INC, Clifton, N.J.) connected to a digital thermometer (model BAT-12 Physitemp Instruments INC, Clifton, N.J.); and catalepsy using the procedure described in Tseng and Craft (Tseng, A. H. et al., Eur. J. Pharmacol., 430, 41-47 (2001)).

CCCCNC(=O)Oc1ccc(OCc2ccccc2)cc1 [UCM532, n-Butylcarbamic acid 4-benzyloxyphenyl ester]
effect on MGL activity (in words) [1]: did not affect
MGL SI (maximal concentration tested/IC50 for FAAH) ([1]; Table 2): ≧100
MGL: maximal concentration of FAAH inhibitor tested ([1]; Table 2): >30 µM
IC50 [2]: > 30 µM
effect on binding of a high-affinity ligand to CB2 (in words) (CB2 receptor): no effect
CB2: maximal concentration of FAAH inhibitor tested (CB2 receptor; Table 2): >300 µM
CB2 SI (maximal concentration tested/IC50 for FAAH) (CB2 receptor; Table 2): ≧1000
IC50 (FAAH; Table 3, read-out: Amidohydrolase IC50): 400 nM
IC50 (FAAH; Table 4, FAAH IC50, read-out: Inhibition of Amidohydrolase IC50): 300 nM
mode of FAAH inhibition (kinetic analyses and dialysis experiments) (FAAH; data not shown): irreversible interaction
IC50 (FAAH; rat brain membranes, read-out: IC50): 396 ± 63 nM
antinociceptive effect, formalin test, compared with UCM597 (Mouse formalin test): mimicked, albeit less effectively
effect on acetylcholinesterase activity (in words) [3]: did not affect
AChE: maximal concentration of FAAH inhibitor tested ([3]; Table 2): >100 µM
body temperature / hypothermia, compound alone [4]: no
